Experiments:
GPR 119 Receptor [1] = molecular target: T1, GPR 119 Receptor (Mus musculus, UniProt Q7TQP3); assay: Glucose tolerance test / whole blood glucose level change in disease model animal (DIO mouse); assay type: in vivo; settings: daily
T1 construct: from tissue; host or cells: whole animal: male C57/6J Jms mice (normal) or diet induced obesity C57BL/6J mice
T1 sequence (Q7TQP3 1-335): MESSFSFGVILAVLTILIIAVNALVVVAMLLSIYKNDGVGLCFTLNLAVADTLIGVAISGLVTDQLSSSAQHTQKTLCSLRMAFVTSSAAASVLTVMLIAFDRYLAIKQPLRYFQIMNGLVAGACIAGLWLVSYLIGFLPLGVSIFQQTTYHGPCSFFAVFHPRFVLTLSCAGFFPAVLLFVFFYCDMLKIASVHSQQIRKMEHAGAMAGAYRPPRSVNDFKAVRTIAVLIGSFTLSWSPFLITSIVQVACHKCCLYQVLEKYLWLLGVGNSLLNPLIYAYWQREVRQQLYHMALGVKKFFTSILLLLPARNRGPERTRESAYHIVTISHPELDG
Description: Male C57BL/6J mice of 6.5 weeks of age were taken with high fat diet (60% kcal, Research Diets) for 12 weeks. The obtained male diet induced obesity (DIO) C57BL/6J mice of 18.5 weeks of age were fasted for 16 hours before the start of glucose tolerance test. The experimental animal groups consist of: • A. a vehicle group (10% EtOH, 20% HPBCD in D.W.), • B. a positive control group administered with Sitagliptin (30 mg/kg), and • C. test groups administered with compound 770 and Compound 1028 (10, 30 mgkg and combination administration with sitagliptin 30 mg/kg).
Each test compounds was administered at the same time of every day for 2 weeks. Before the compound administration, whole blood glucose level was determined using a Glucometer (ACCU-CHEK, Roche). At 30 minutes after compound administration, whole blood glucose level was determined once again, and 20% glucose (2 g/kg/10 mL) was administered orally. Whole blood glucose level was determined at 20, 40, 60, 80, and 120 minutes after 20% glucose administration. Area under the curve (AUC) of whole blood glucose level was obtained using GraphPad Prism 5.0. The effect of glucose tolerance was adjudged with the corrected area under the curve (cAUC), on which the base value of glucose area under the curve was excluded.
Whole blood glucose level was measured at about 1 hour after test compound administration from caudal vein of mice using Glucometer. Whole blood glucose level was determined three times totally, that is, (1) at prior to the start of drug administration, (2) after 1 week from the start of 2-weeks drug administration, and (3) after the termination of 2-weeks drug administration. Each determination was started with 20% glucose administration, and then perfomed at 20, 40, 60, 80, and 120 minutes after 20% glucose administration.

GPR 119 Receptor [2] = molecular target: T1, GPR 119 Receptor; assay: Glucose tolerance test in normal mouse (animal test of activity for the GPR 119 receptor); assay type: in vivo; settings: normal male C57/6J Jms mice, oral glucose 2 g/kg, whole blood glucose AUC
Description: Male C57/6J Jms mice of 6-7 weeks of age were fasted for 16 hours before the start of glucose tolerance test. The experimental animal groups consist of: • A. a vehicle group (10% EtOH, 20% HPBCD in saline), • B. a positive control group administered with MBX-2982 (10 mg/kg), and • C. test groups administered with compound 516, 581, 586, 612, 640, 644 or etc. (10 mg/kg).
Before compound administration, that is, at 0 hour, whole blood glucose level was determined using a Glucometer (ACCU-CHEK, Roche). At 30 minutes after compound administration, whole blood glucose level was determined once again, and 20% glucose (2 g/kg/10 mL) was administered orally. Whole blood glucose level was determined at 20, 40, 60, 80, and 120 minutes after 20% glucose administration. Area under the curve (AUC) of whole blood glucose level was obtained using GraphPad Prism 5.0. The effect of glucose tolerance was adjudged with the corrected area under the curve (cAUC), on which the base value of glucose area under the curve was excluded.

human GPR119 receptor = molecular target: T2, human GPR119 receptor (Homo sapiens, UniProt Q8TDV5); assay: Activity test for human GPR119 receptor (GeneBLAzer T-Rex GPR 119 CHO-K1 DA cells, fluorescence reporter); assay type: cell-based; settings: human GPR119 CHO-K1 reporter cells, 5 hours treatment, ratio to vehicle control well, read-out: % Activation
T2 construct: host or cells: GeneBLAzer T-Rex GPR 119 CHO-K1 DA cells (CHO-K1)
T2 sequence (Q8TDV5 1-335): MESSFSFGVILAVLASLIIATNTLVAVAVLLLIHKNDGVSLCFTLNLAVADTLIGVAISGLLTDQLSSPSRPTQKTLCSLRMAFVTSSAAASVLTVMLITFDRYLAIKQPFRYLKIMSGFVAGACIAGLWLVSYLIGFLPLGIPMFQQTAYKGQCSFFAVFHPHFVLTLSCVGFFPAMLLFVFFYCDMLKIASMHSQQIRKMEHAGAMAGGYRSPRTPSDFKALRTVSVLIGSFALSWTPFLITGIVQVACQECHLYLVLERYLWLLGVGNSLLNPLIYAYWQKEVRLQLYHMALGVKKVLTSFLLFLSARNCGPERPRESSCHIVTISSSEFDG

[3] = 30 mpk alone, 0 week (prior to start of administration)

SMILES	Whole Blood Glucose Level Change (%) by drug administration (GPR 119 Receptor [1]; [3]) [%]	Whole Blood Glucose Level Change (%) by drug administration (GPR 119 Receptor [1]; 30 mpk alone, 1 week) [%]	Whole Blood Glucose Level Change (%) by drug administration (GPR 119 Receptor [1]; 30 mpk alone, 2 weeks) [%]	Decrease % of AUC at 10 mg/kg (GPR 119 Receptor [2]) [%]	activity at 0.1 µM (human GPR119 receptor; test compound conc. 0.1 μM) [%]	activity at 1 µM (human GPR119 receptor; test compound conc. 1 μM) [%]	activity at 10 µM (human GPR119 receptor; test compound conc. 10 μM) [%]	Whole Blood Glucose Level Change (%) by drug administration (GPR 119 Receptor [1]; 10 mpk alone, 0 week (prior to start of administration)) [%]	Whole Blood Glucose Level Change (%) by drug administration (GPR 119 Receptor [1]; 10 mpk alone, 1 week) [%]	Whole Blood Glucose Level Change (%) by drug administration (GPR 119 Receptor [1]; 10 mpk alone, 2 weeks) [%]
N[C@@H](CC(=O)N1CCn2c(nnc2C(F)(F)F)C1)Cc1cc(F)c(F)cc1F [Sitagliptin, reference compound]	0	25.5	31.7							
CC(C)(F)CN1CCC(COc2ccc(-c3ccc(C(=O)N4CCC[C@H]4C(N)=O)c(F)c3)nc2)CC1 [Compound 770, (S)-1-(2-fluoro-4-(5-((1-(2-fluoro-2-methylpropyl)piperidin-4-yl)methoxy)pyridine-2-yl)benzoyl)pyrrolidine-2-carboxamide]	0	25.5	26.6	47	228	280	310	0	22.9	24.0

Reference: patent publication US9944600B2, “Piperidine derivatives for GPR119 agonist” (CHONG KUN DANG PHARMACEUTICAL CORP., priority 2012, dated 2018)
